Paper PMC4857387, “The Arabidopsis NPF3 protein is a GA transporter” (Nature Communications, 2016)

T1: NPF4.1 (AIT3) (Arabidopsis thaliana, UniProt Q9LSF0)
T1 sequence (Q9LSF0 1-515): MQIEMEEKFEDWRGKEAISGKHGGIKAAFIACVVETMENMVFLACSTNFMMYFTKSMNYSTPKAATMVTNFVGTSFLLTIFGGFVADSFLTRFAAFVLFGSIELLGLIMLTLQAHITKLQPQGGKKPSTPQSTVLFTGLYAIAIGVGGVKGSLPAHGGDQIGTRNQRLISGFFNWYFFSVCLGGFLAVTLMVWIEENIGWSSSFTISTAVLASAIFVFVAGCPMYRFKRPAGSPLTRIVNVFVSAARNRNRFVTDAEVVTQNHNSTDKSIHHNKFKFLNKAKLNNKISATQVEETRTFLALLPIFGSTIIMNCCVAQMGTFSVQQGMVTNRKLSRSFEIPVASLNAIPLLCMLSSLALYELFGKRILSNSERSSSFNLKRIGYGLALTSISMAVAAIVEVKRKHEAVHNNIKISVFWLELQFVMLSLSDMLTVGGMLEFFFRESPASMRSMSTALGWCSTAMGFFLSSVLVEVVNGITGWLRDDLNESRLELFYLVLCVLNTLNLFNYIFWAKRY


Experiments:
[1] = target: T1, NPF4.1 (AIT3); experiment: competition of GA4 uptake in Xenopus oocytes, LC-MS; format: cell-based; conditions: 300 uM GA4 with 5 mM JA-Ile
[2] = substrate: C=C1C[C@]23C[C@H]1CC[C@H]2[C@@]12CC[C@H](O)[C@@](C)(C(=O)O1)[C@H]2[C@@H]3C(=O)O; experiment: uptake into Xenopus oocytes, LC-MS; format: cell-based, Arabidopsis thaliana; conditions: pH 5, 60 min incubation, diffusion into non-injected oocytes subtracted, judged by authors a likely overestimation

inhibition of GA4 uptake at 5 mM [1] | Molecule | Km [2] [µM]
JA-Ile strongly inhibited GA4 uptake | CC/C=C\C[C@H]1C(=O)CC[C@@H]1CC(=O)N[C@H](C(=O)O)[C@@H](C)CC [JA-Ile] | –
– | NPF3 (NPF3.1, AtNPF3.1) (Arabidopsis thaliana) (protein, putative 12 transmembrane domains) MEEQSKNKISEEEKQLHGRPNRPKGGLITMPFIFANEICEKLAVVGFHANMISYLTTQLHLPLTKAANTLTNFAGTSSLTPLLGAFIADSFAGRFWTITFASIIYQIGMTLLTISAIIPTLRPPPCKGEEVCVVADTAQLSILYVALLLGALGSGGIRPCVVAFGADQFDESDPNQTTKTWNYFNWYYFCMGAAVLLAVTVLVWIQDNVGWGLGLGIPTVAMFLSVIAFVGGFQLYRHLVPAGSPFTRLIQVGVAAFRKRKLRMVSDPSLLYFNDEIDAPISLGGKLTHTKHMSFLDKAAIVTEEDNLKPGQIPNHWRLSTVHRVEELKSVIRMGPIGASGILLITAYAQQGTFSLQQAKTMNRHLTNSFQIPAGSMSVFTTVAMLTTIIFYDRVFVKVARKFTGLERGITFLHRMGIGFVISIIATLVAGFVEVKRKSVAIEHGLLDKPHTIVPISFLWLIPQYGLHGVAEAFMSIGHLEFFYDQAPESMRSTATALFWMAISIGNYVSTLLVTLVHKFSAKPDGSNWLPDNNLNRGRLEYFYWLITVLQAVNLVYYLWCAKIYTYKPVQVHHSKEDSSPVKEELQLSNRSLVDE | 500
